In PMC6345774, “Kinetic and thermodynamic effects of phosphorylation on p53 binding to MDM2” (Scientific Reports, 2019):

B1: Ac-EeFdDLWKLLPEN-NH2 (P53-E18-D20) (peptide)
peptide: Ac-EEFDDLWKLLPEN-NH2
notes: also called double phosphomimetic mutant

Experiments:
[1] = molecular target: T1, human MDM2 (residues 2–125) (Homo sapiens, UniProt Q00987); assay: Stopped-flow fluorescence kinetics of p53-peptide binding to MDM2; conditions: stopped-flow Trp fluorescence, 15 °C, 50 mM Tris-HCl pH 8.0, 250 mM NaCl, 0.5 mM TCEP, peptide 0.125 μM, ± fitting error; for kon: MDM2 1–3 μM, pseudo-first order, slope, read-out: kon 10^6; for koff: y-axis intercept of pseudo-first-order plot
T1 construct: human MDM2 (residues 2–125); made in house; host or cells: E. coli BL21 (DE3)
T1 sequence (Q00987 2-125): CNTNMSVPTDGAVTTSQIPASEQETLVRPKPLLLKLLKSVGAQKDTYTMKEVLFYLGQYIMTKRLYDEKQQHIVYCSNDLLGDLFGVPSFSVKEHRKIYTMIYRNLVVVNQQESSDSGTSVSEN
Experimental: (§1) Expression and purification of human MDM2 (residues 2–125) was carried out as described[23] in BL21 (DE3) cells. […] Protein concentration was determined from the absorbance of its seven Tyr residues.
The kinetics of the MDM2/p53-peptide interaction was measured at 15 °C using an Applied Photophysics stopped-flow fluorimeter in the same buffer as that used in the equilibrium fluorescence experiments. The experimental procedure has been described previously. Association kinetics was measured under pseudo-first order conditions, by keeping the MDM2 concentration in excess of that of the peptide. […] Excitation wavelength was 280 nm with a cut-off filter of 315 nm on the emission side. The slit widths were 10 nm for excitation and emission.
At each MDM2 concentration a minimum of six traces were acquired; and the fitting in all cases for all peptides was carried out with the averaging of at least four traces. The averaged trace was always fitted to a single exponential function, which yielded, kobs. Fitting to a single exponential curve was carried out by using Kaleidagraph (Synergy Software); reported errors in kobs are from the exponential fitting. The dissociation (koff) and association (kon) rate constants were obtained from the straight line: kobs=kon×[MDM2]+koff.
Errors in both rates were from the linear fitting; the errors were always larger for koff due to the extrapolation to the y-axis intercept.

[2] = molecular target: T1, human MDM2 (residues 2–125); assay: Equilibrium fluorescence titration of p53-peptides and MDM2; format: binding; conditions: fluorescence at 315 nm, excitation 280 nm; MDM2 4 μM, peptide 0–10 μM; 15 °C, pH 8.0 Tris-HCl, 250 mM NaCl, 0.5 mM TCEP; overnight equilibration; titration repeated twice; read-out: Kd from fluorescence titrations
Experimental: as §1

[3] = Far-UV CD of isolated peptides in aqueous solution (helicity); format: physicochemical; conditions: 5 °C, 50 mM phosphate pH 6.8; for molar ellipticity at 222 nm, [Θ]222: far-UV CD; for % Helix in water ([Θ]222): from molar ellipticity at 222 nm assuming 100% helix = −31500 deg cm^2 dmol^−1
Experimental: Spectra were acquired on a Jasco J815 spectropolarimeter (Jasco, Japan) interfaced with a Peltier unit. The instrument was periodically calibrated with (+) 10-camphorsulphonic acid. Far-UV measurements (in aqueous or TFE solutions) were performed in 0.1-cm-pathlength quartz cells (Hellma), with a response time of 2 s, a band width of 1 nm, data were collected every 0.2 nm, and a scan velocity of 50 nm/min (or 20 nm/min). […] In all peptides, two concentrations (10 μM and 70 μM) in aqueous solutions (50 mM sodium phosphate buffer, pH 6.8 […]) were used to determine whether either the shapes or the intensities of the spectra were concentration-dependent. […] In all cases (aqueous solution or TFE titrations), the corresponding blank solutions (containing only buffer, or buffer and the corresponding amount of TFE) were subtracted from the spectra.
(§2) For the TFE titrations, a peptide concentration of 40 μM was used. The samples were prepared the day before and left overnight at 5 °C to reach equilibrium. The experiments in aqueous solution were acquired at 5 °C, in 50 mM sodium phosphate buffer, pH 6.8. Raw ellipticity was converted to molar ellipiticity, [Θ], from which the percentage of helical populations was determined. Co-solvent concentrations were indicated in percentage of volume. […] Fitting of the titration curves, obtained by observation of the molar ellipticity at 222 nm as the TFE concentration was increased, was carried out with Kaleidagraph (Synergy software).

[4] = TFE titrations monitored by CD (helical population); format: physicochemical; conditions: 5 °C, 50 mM phosphate pH 6.8, peptide 40 μM; for [TFE]1/2 (midpoint of TFE titration) / m (m-value of TFE titration): CD at 222 nm, two-state fit, ± fitting error; for % Helix in water (from ΔG in TFE titrations): from ΔG = [TFE]1/2 × m, for 1% values the error was 10%
Experimental: Unlike the above programs, which make assumptions about how the ellipticity signal relates to secondary structure content, a TFE titration allows the determination of helical content derived from the free-energy change for the equilibrium between folded (in TFE) and unfolded peptide, without any such assumptions.
as §2

[5] = molecular target: T1, human MDM2 (residues 2–125); assay: Isothermal titration calorimetry of p53-peptide binding to MDM2; conditions: ITC, 15 °C, 50 mM Tris-HCl pH 8.0, 250 mM NaCl, 0.5 mM TCEP; for ΔH of binding: repeated twice
Experimental: Protein concentration was determined from the absorbance of its seven Tyr residues.
Peptide binding to MDM2 was measured by using an Auto-iTC200 (Malvern Instruments, Malvern UK), as described[24],[37]. Data acquisition was carried out with a reference power of 10 µcal/s, initial delay of 60 s, spacing between injections of 150 s. In a typical ITC experiment, the p53 peptide was loaded into a 40 μl syringe and the protein was placed into the sample cell. The sequence of injections consisted of one 0.5 μl injection followed by 19 injections of 2 μl each. Control experiments loading peptide into buffer solution were also carried out for each peptide. Experiments were performed with freshly prepared protein solutions, at 15 °C in the same buffer used in fluorescence experiments. ITC experiments were performed at 15 °C rather than 25 °C to avoid aggregation of MDM2.
Each peak was integrated using NITPIC software. The areas of the peaks are related to the heat exchanged upon binding and/or dilution. This heat was corrected of the heat of dilution (i.e., the average heat of the injections after the equilibrium has reached the saturation). Titration with each peptide was repeated twice.

[6] = molecular target: T2, human MDM2 (residues 2–125) (human, UniProt Q00987 2-125); assay: ITC; p53 peptide in the syringe titrated into MDM2 in the cell; Auto-iTC200; 15 °C; 50 mM Tris-HCl pH 8.0, 250 mM NaCl, 0.5 mM TCEP; conditions: both partners purified
T2 construct: MDM2 (murine double minute 2), human, N-terminal domain, residues 2-125; no tag is named; also called N-terminal domain of MDM2
T2 sequence (Q00987 2-125): as above

[7] = molecular target: T2, human MDM2 (residues 2–125); assay: other fluorescence titration; peptide 0–10 μM added to 4 μM MDM2; fluorescence at 315 nm after excitation at 280 nm; 15 °C; 50 mM Tris-HCl pH 8.0, 250 mM NaCl, 0.5 mM TCEP; samples left overnight at 5 °C; conditions: both partners purified
[8] = molecular target: T2, human MDM2 (residues 2–125); assay: stopped-flow fluorescence; pseudo-first order, peptide 0.125 μM final, MDM2 in excess (typically 1 μM to 3 μM); Trp23 fluorescence, excitation 280 nm, 315 nm cut-off; 15 °C; 50 mM Tris-HCl pH 8.0, 250 mM NaCl, 0.5 mM TCEP; Kd as koff/kon assuming a two-state reaction; conditions: both partners purified

Row | Molecule | kon [1] [M⁻¹ s⁻¹] | koff [1] [s⁻¹] | Kd [2] [µM] | molar ellipticity at 222 nm, [Θ]222 [3] [deg cm^2 dmol^−1] | % Helix in water ([Θ]222) [3] [%] | [TFE]1/2 (midpoint of TFE titration) [4] | m (m-value of TFE titration) [4] | % Helix in water (from ΔG in TFE titrations) [4] [%] | TΔS of binding [5] [kcal/mol] | ΔH of binding ([5]; peptide titrated into MDM2) [kcal/mol] | Kd ([5]; peptide titrated into MDM2, read-out: Log KA (converted)) [µM] | Kd [6] [µM] | Log KA [6] | dH [6] [kcal/mol] | Kd [7] [µM] | Kd [8] [µM]
1 | CC(=O)N[C@@H](CCC(=O)O)C(=O)N[C@H](C(=O)N[C@@H](Cc1ccccc1)C(=O)N[C@@H](CCC(=O)O)C(=O)N[C@@H](CC(=O)O)C(=O)N[C@@H](CC(C)C)C(=O)N[C@@H](Cc1c[nH]c2ccccc12)C(=O)N[C@@H](CCCCN)C(=O)N[C@@H](CC(C)C)C(=O)N[C@@H](CC(C)C)C(=O)N1CCC[C@H]1C(=O)N[C@@H](CCC(=O)O)C(=O)N[C@@H](CC(N)=O)C(N)=O)[C@@H](C)O [P53-E20] | 9e+06 ± 2e+06 | 8 ± 5 | 0.7 ± 0.1 | −2911 | 9.2 | 25 ± 2 % (vol:vol) | 231 ± 141 cal mol^−1(%)^−1 | 1 |  |  |  |  |  |  |  | 
2 | Ac-EEFDDLWKLLPEN-NH2 [P53-E18-D20] | 4e+06 ± 2e+06 | 18 ± 6 |  | −2100 | 6.6 | 15 ± 1 % (vol:vol) | 135 ± 18 cal mol^−1(%)^−1 | 3 ± 1 | -2.64 | -8.80 |  |  |  |  |  | 
3 | Ac-EEFEDLWKLLPEN-NH2 [P53-E18-E20] | 2.7e+06 ± 900000 | 17 ± 2 |  | −2757 | 8.7 | 24.5 ± 0.9 % (vol:vol) | 420 ± 390 cal mol^−1(%)^−1 | 1 | -2.16 | -9.12 | 5.01 |  |  |  |  | 
4 | Ac-ETFDDLWKLLPEN-NH2 [Ac-ETFdDLWKLLPEN-NH2 (P53-D20)] |  |  |  |  |  |  |  |  |  |  |  | 5.7 | 5.24 | -10.2 | 1.5 ± 0.4 | 
5 | Ac-ETFEDLWKLLPEN-NH2 [Ac-ETFeDLWKLLPEN-NH2 (P53-E20)] |  |  |  |  |  |  |  |  |  |  |  |  |  |  |  | 0.9 ± 0.6
6 | Ac-EEFSDLWKLLPEN-NH2 [Ac-EeFSDLWKLLPEN-NH2 (P53-E18)] |  |  |  |  |  |  |  |  |  |  |  | 7.1 | 5.15 | -7.02 | 2.3 ± 0.6 | 4.2 ± 0.9
7 | B1 |  |  |  |  |  |  |  |  |  |  |  | 20.4 | 4.69 | -8.8 | 8.3 ± 4.9 | 4 ± 3
8 | Ac-EEFEDLWKLLPEN-NH2 [Ac-EeFeDLWKLLPEN-NH2 (P53-E18-E20)] |  |  |  |  |  |  |  |  |  |  |  | 5 | 5.3 | -9.12 |  | 6 ± 2
